“And” between values parts separate entries of the source, which are not always exact repeats. Identical values can stand only once.
Legend:
[1] = tested on: P. aeruginosa strain PA14 biofilms; experiment: Square wave voltammetry of pyocyanin produced by PA14 biofilms in a microfluidic growth chamber during antibiotic exposure; type: cell-based, Pseudomonas aeruginosa
Protocol: P. aeruginosa strain PA14 and m-cherry Escherichia coli strain K12 were used for all antibiotic tests performed. Trypticase soy broth (BD 211768) was used as the nutrient source for all bacteria grown in these tests. Colistin sulfate (Adipogen AG-CN2-0065-G001) was dissolved in trypticase soy broth (TSB) at 1 g/L and used as a stock solution. When not in use, the stock solution was stored at 4° C. Polydimethylsiloxane (Ellsworth Adhesives 184 Sil. Elast. Kit 0.5 kg) was used to prepare all microfluidic devices. Disposable three electrode cells (Zensor TE100) were used for all measurements in this study. The electrochemical cells consist of carbon working and counter electrodes with a Ag/AgCl paste reference electrode. Tubing and luer lock fittings for microfluidic connections were purchased from Amazon Supply (B001GMWZM) and Value Plastic (MTLL230). To prevent bacteria from leaving the microfluidic growth chambers, Minisart RC4 0.2 micron regenerated cellulose luer lock syringe filters (17821K) were attached to the inlets and outlets of the devices via 19 gauge luer lock syringes (NE192PL-25). A syringe pump (Harvard Apparatus Fusion 200 211097) was used to control the flow rate of growth media and antibiotic through the microfluidic chamber. Electrochemical measurements were made using a multipotentiostat (CHI 1040C A2728).
Polydimethylsiloxane (PDMS) wells were fabricated from 9 mm×9 mm tape molds made on glass slides (3M Scotch Tape, tape thickness ≈50 μm) using a standard method. […] Inlets and outlets in the wells were drilled and the resulting microfluidic devices were fabricated by irreversibly bonding PDMS to the disposable electrochemical cells using air plasma (Anatech SP-100, 5-7 s at 100 W). The microfluidic channels were filled with trypticase soy broth (TSB) at a flow rate of 10 μL/min. To facilitate complete filling of the chamber (removal of air bubbles), an empty syringe was attached to the outlet. By pulling and releasing vacuum on the outlet, TSB was pulled through the chamber displacing any air bubbles.
For antibiotic testing, cultures of PA14 and E. coli were grown over night in 3 mL of TSB (concentration approximately […]). After overnight growth, samples were centrifuged for 3 min at 10,000 rpm. The supernatant was discarded and the cultures were reconstituted in 3 mL of fresh TSB. After removing the inlet syringe filter, approximately 24 μL of reconstituted cell culture was loaded into the growth chamber at a flow rate of 10 μL/min. […] After overnight growth, flow at 0.1 μL/min was initiated with either TSB or colistin sulfate in TSB and the electrochemical response was monitored. […]

PA14 [2] = experiment: Regrowth on TSB agar plates of cells taken from PDMS chambers after colistin sulfate exposure; type: cell-based, Pseudomonas aeruginosa; details: TSB plate
Protocol: FIG. 12 illustrates PA14 exposed to 100 mg/L and 4 mg/L colistin sulfate for 20 hours within PDMS chambers then spotted onto TSB plates. Photographs of a plate after incubation at 37° C. for A) 4.3 h, B) 6.5 h, and C) 74.3 h (removed from the incubator after 24 h to avoid drying and grown at room temperature (≈23° C.)). Arrows highlight the locations of the first observed PA14 colonies. A vertical line divides the areas on the plate where PA14 exposed to 100 mg/L (left) and 4 mg/L (right) colistin sulfate were spotted.
FIG. 22 illustrates PA14 streaked onto TSB after exposure to 100 mg/L and 4 mg/L colistin for 20 hours within PDMS flow chambers. Photographs show the plate after A) 4.33 h, B) 6.5 h, and C) 74.3 h of incubation. The plate was incubated at 37° C. for the first 24 hours, then grown at room temperature for the remaining time to prevent the agar from drying out.
The qualitative results of the live cell stain are consistent with the culture plate experiments. The live cell concentration in biofilms exposed to 100 mg/L colistin sulfate (FIG. 11B), however, is higher than expected when compared to the reduced rate of colony formation on agar plates (FIG. 12).
Regarding FIG. 22, after exposure to colistin sulpahte at 4 and 100 mg/L flowing at 100 nL/min, the PDMS chambers were peeled from the disposable electrodes. […] Samples were incubated at 37° C., and monitored for growth. […]

P. aeruginosa = details: literature value, cited from earlier work
PA14 [3] = experiment: Growth of liquid PA14 cultures plated on cetrimide agar plates containing colistin sulfate; type: cell-based, Pseudomonas aeruginosa
Protocol: FIG. 21 illustrates images of PA14 colonies after 20 hours of growth at 37° C. on cetrimide agar plates mixed with different concentrations of colistin sulfate.
Regarding FIG. 21, liquid cultures of PA14, grown over night in 3 mL of TSB, were plated directly onto cetrimide agar plates containing 0, 4, and 100 mg/L of colistin sulfate. These plates were incubated overnight at 37° C. The plates were then inspected for bacterial growth (FIG. 21).

PA14 cells = experiment: Live cell counts (LIVE/DEAD stain, haemocytometer) of biofilm removed from the device after antibiotic exposure; type: cell-based, Pseudomonas aeruginosa; details: PA14 biofilm exposed to 100 mg/L colistin sulfate, compared to 0 and 4 mg/L
Protocol: Cell viability after exposure to colistin sulfate was assessed using a LIVE/DEAD staining kit (EMD Chemicals Millipore 50-231-0606). Stains were prepared per manufacturer's operating procedure. After staining, 10 μL of sample was injected into an INCYTO C-chip disposable hemocytometer (DHC-N01). Cells were imaged using a fluorescence microscope, and the number of PA14 cells that were alive after exposure was determined using IMAGE J (ImageJ, U.S. National Institutes of Health, Bethesda, Md., USA, http://imagej.nih.gov/ij/).
The number of living cells measured after exposure to three different concentrations of colistin sulfate were compared (FIG. 11B). After the biofilm was exposed to antibiotic in the device, the PDMS chambers were peeled off and 100 μL of fresh TSB was spotted on the biofilm and pipetted vigorously to remove material from the surface of the electrode. Removed samples were used to measure live cell counts, performed with Millipore 3P Live/Dead Stain, using a haemocytometer. […] A concentration of approximately 4×10^5 live cells/mL was measured in the biofilms not exposed to colistin sulfate. […] A statistically significant reduction in the number of live PA14 cells was measured for samples exposed to 100 mg/L colistin sulfate compared to cells exposed to 0 and 4 mg/L colistin sulfate. […]

| Compound | effect on PYO production (SWV response) ([1]; PA14 exposed to 100 mg/L ampicillin in TSB under flow) | incubation time after which growth (visible colonies) was observed (PA14 [2]; cells exposed to 4 mg/L colistin sulfate for 20 hours in chambers, 37° C.) | growth after 6.5 h of incubation (PA14 [2]; cells exposed to 100 mg/L colistin sulfate for 20 hours in chambers) | average response (peak current, PYO production) compared to biofilms exposed to only TSB ([1]; PA14 biofilm exposed to 4 mg/L colistin sulfate, ANOVA) | average percent decrease in the maximum peak current at the end of testing ([1]; PA14 biofilm exposed to 100 mg/L colistin sulfate in TSB, flow 100 nL/min, compared to control cells) | average peak current compared against the control (ANOVA) ([1]; PA14 exposed to 16 and 100 mg/L colistin sulfate, P<0.05) | reported MIC (High MIC) (P. aeruginosa; higher MIC) | reported MIC (low MIC) (P. aeruginosa; lower MIC) | bacterial growth on plate after overnight incubation at 37° C. (PA14 [3]; cetrimide agar containing 4 mg/L colistin sulfate) | bacterial growth on plate after overnight incubation at 37° C. (PA14 [3]; cetrimide agar containing 100 mg/L colistin sulfate) | reduction in the number of living cells (PA14 cells) |
| --- | --- | --- | --- | --- | --- | --- | --- | --- | --- | --- | --- |
| CC1(C)S[C@@H]2[C@H](NC(=O)[C@H](N)c3ccccc3)C(=O)N2[C@H]1C(=O)O [ampicillin] | no effect on PYO production | – | – | – | – | – | – | – | – | – | – |
| colistin sulfate | – | 4.3 h and 4 h | No growth was observed | no significant difference | ~82% | significantly lower | 16 µg/mL | 4 µg/mL | showed growth | showed no colony formation | ~2 × |

— patent US10316348B2, “Diagnostic system and process for rapid bacterial infection diagnosis” (priority 2014, dated 2019)
